A short description of data set [1]: Phase I study D-84812-Z012, single s.c. injection: pharmacokinetics of teverelix. It counts as in vivo, human.
The nature of data set [2]: Phase II study 2 x 90 mg i.m. (A014): tolerability. The format is in vivo, human. Particulars: A014: i.m. 90 mg day 1 and 8. Here is the method: (§1) The primary objective was to assess the duration of action of an initial “loading” dose regimen of Teverelix TFA delivered IM in terms of suppression of testosterone to below castrate level (0.5 ng/mL [2 nmol/L]). The secondary objectives were to assess the pharmacodynamics of teverelix in terms of ability to suppress and to maintain plasma testosterone levels below castration level (<0.5 ng/mL [2 nmol/L]) for 3 weeks; to assess the effects on luteinising hormone (LH) and prostate specific antigen (PSA); and to assess the safety of Teverelix in terms of incidence of local and systemic tolerability (adverse events [AEs] and changes in laboratory parameters).
(§2) This was a multicenter, open-label, non-controlled study in 14 patients diagnosed with advanced prostate cancer. Patients were screened for inclusion in the study between 1 and 7 days before first administration. Each patient received 2 intramuscular (i.m.) injections of 90 mg Teverelix TFA, 7 days apart, on Study Days 1 and 8. […] Blood samples were taken for the evaluation of teverelix, testosterone and LH in plasma, and PSA levels. Safety and tolerability were assessed throughout the study by monitoring local and systemic tolerability (AEs, clinical laboratory tests, vital signs an electrocardiogram [ECG]).
(§3) Comparison of s.c. injection 90 mg days 1, 2 and 3 vs. IM injection day 1 and 8.

The nature of data set [3]: Phase II study 2 x 90 mg i.m. Days 1 and 8 (A014): plasma PK of teverelix. It counts as in vivo. Particulars: male, human, im; for AUC(0-t) / Cmax / Tmax / AUC(0-inf) / half-life: 90 mg; for AUC(0-t): N=14, read-out: AUC (0-t) Geometric mean; for Cmax: N=14, read-out: Cmax (obs) Geometric mean; for Tmax: N=14, read-out: Tmax (obs) Median. Here is the method:
In order to test the hypothesis that and IM injection of a GnRH antagonist could be useful as part of a prostate cancer regimen, a Phase II Multicenter, Open-label Study Investigating the Pharmacokinetics, Pharmacodynamics, Efficacy and Safety of a Teverelix 90 mg, TFA formulation was conducted.
as §1, §2
The geometric means for Cmax(obs), AUC(0-t), and AUC(0-∞) (along with respective coefficients of variations presented in parenthesis); Tmax median (along with the range of Tmax values presented in parenthesis); and arithmetic mean for T1/2,elim (along with standard deviation presented in parenthesis) are presented in Table 1 for each dose of teverelix IM.
The combined geometric means for AUC and AUC(∞) (along with respective coefficients of variations presented in parenthesis); and arithmetic mean for apparent clearance (CL/F) (along with standard deviation presented in parenthesis) for the two i.m. doses of teverelix are presented in Table 2.

Data set [4] can be described thus: Phase I study D-84812-Z012, single s.c. injection: safety and tolerability. Conditions: doses up to 90 mg, 32 healthy male volunteers. It counts as in vivo, human.
For data set [5] the following is noted: compared with degarelix; cited from earlier work.
Data set [6] in a line: Clinical study A013, s.c. injection 90 mg days 1, 2 and 3: tolerability. It counts as in vivo, human. Particulars: A013: s.c. 90 mg days 1, 2 and 3. Here is the method: as §3
Data set [7] is described as follows: Water solubility of teverelix. It counts as physicochemical. Here is the method: In some instances, the GnRH antagonist can be teverelix ((Ac-D-NaID-pClPhe-D-Pal-Ser-Tyr-D-Hci-Leu-Lys(iPr)-Pro-D-Ala-NH2). Teverelix is a synthetic decapeptide with a water solubility of approximately 10 mg/mL.
Data set [8] is described as follows: Phase I study EP-24332T-A004, repeated s.c. injections: tolerability. Conditions: 2 doses of 60 mg or 90 mg s.c. at 24 h or 48 h interval. It counts as in vivo, human. Here is the method: In a second Phase I study (EP-24332T-A004), a second injection was administered 24 h or 48 h after the first in order to increase and prolong the initial peak, as well as increase the teverelix level and consequently the number of subjects castrated. As the previous Phase I study had shown 10 mg and 30 mg to be insufficient to provide a long-term suppression, 2 doses of 60 mg or 90 mg (6 subjects per group) or placebo (4 subjects) were administered at a 24 h interval and 2 doses of 90 mg at a 48 h interval. […] No critical safety findings were reported. […] The protocol of the study included 6 subjects who received 90 mg Teverelix TFA on D1; D2; D3.

Values after ≈ are worked out from the molar mass of the structure shown. Where a name gives a salt, the structure may show the parent alone. Read-outs that look alike come from different tables or passages of the source. Non-standard residues stand in square brackets, D forms with d. Residues, ends and D or L forms follow the SMILES beside them. Phe(4-Cl) = N[C@@H](Cc1ccc(Cl)cc1)C(=O)O; dPhe(4-Cl) = N[C@H](Cc1ccc(Cl)cc1)C(=O)O; d2Nal = N[C@H](Cc1ccc2ccccc2c1)C(=O)O; d(hCit) = NC(=O)NCCCC[C@@H](N)C(=O)O; Lys(iPr) = CC(C)NCCCC[C@H](N)C(=O)O; d3Pal = N[C@H](Cc1cccnc1)C(=O)O

The AUC(0-t) is exposure summed from dosing to a finite time, without extrapolation to infinity. In general, Cmax refers to the highest concentration seen after dosing. Usually Tmax stands for the time from dosing to the highest level. Turning to `CC(=O)N[C@H](Cc1ccc2ccccc2c1)C(=O)N[C@H](Cc1ccc(Cl)cc1)C(=O)N[C@H](Cc1cccnc1)C(=O)N[C@@H](CO)C(=O)N[C@@H](Cc1ccc(O)cc1)C(=O)N[C@H](CCCCNC(N)=O)C(=O)N[C@@H](CC(C)C)C(=O)N[C@@H](CCCCNC(C)C)C(=O)N1CCC[C@H]1C(=O)N[C@H](C)C(N)=O` [Teverelix TFA, teverelix trifluoroacetate] (Ac-[d2Nal][dPhe(4-Cl)][d3Pal]SY[d(hCit)]L[Lys(iPr)]P[dA]-NH2), the dose proportionality result in data set [1] (between the 60 mg and 90 mg doses, single s.c.) is given as “Dose proportionality was demonstrated”. Also, the half-life was 252 to 331 h in data set [1] (human, plasma, sc, single s.c. injection, doses up to 90 mg, healthy male volunteers); 167 h in data set [3] (Day 1 (Dose 1): 1 x 90 mg i.m., n = 8, read-out: T1/2,elim Arithmetic mean (converted)); 404 h in data set [3] (Day 8 (Dose 2): 1 x 90 mg i.m., N=14, read-out: T1/2,elim Arithmetic mean (converted)). For the same compound, the results for the tolerability entry in data set [2] and in data set [4] were “Very good/good for all patients” and “tolerated well”, respectively. Moreover, the values for the AUC(0-t) in data set [3] (Day 1 (Dose 1): 1 x 90 mg i.m.) and in data set [3] (Day 8 (Dose 2): 1 x 90 mg i.m.) were 1730 ng·h/mL and 8360 ng·h/mL, respectively. Also, the Cmax in data set [3] (Day 1 (Dose 1): 1 x 90 mg i.m.) turned out to be 21.5 ng/mL; in data set [3] (Day 8 (Dose 2): 1 x 90 mg i.m.), 38 ng/mL. Also, the Tmax in data set [3] (Day 1 (Dose 1): 1 x 90 mg i.m.) amounted to 2 h; in data set [3] (Day 8 (Dose 2): 1 x 90 mg i.m.), 1 h. Also, the AUC(0-inf) in data set [3] (Day 1 (Dose 1): 1 x 90 mg i.m., n = 8, read-out: AUC (0-∞) Geometric mean) came out at 4610 ng·h/mL; in data set [3] (Day 8 (Dose 2): 1 x 90 mg i.m., N=14, read-out: AUC (0-∞) Geometric mean), 9380 ng·h/mL. Moreover, the CL/F in data set [3] (2 x 90 mg i.m., N=14, read-out: CL/F Arithmetic mean (converted)) is 249 mL/min.
A word on the solubility: it is the dissolved amount per volume that the medium holds. A higher solubility goes with much dissolved substance. As to `CC(=O)N[C@H](Cc1ccc2ccccc2c1)C(=O)N[C@@H](Cc1ccc(Cl)cc1)C(=O)N[C@H](Cc1cccnc1)C(=O)N[C@@H](CO)C(=O)N[C@H](Cc1ccc(O)cc1)C(=O)N[C@H](CCCCNC(N)=O)C(=O)N[C@@H](CC(C)C)C(=O)N[C@@H](CCCCNC(C)C)C(=O)N1CCC[C@H]1C(=O)N[C@H](C)C(N)=O` [teverelix, Ac-D-NaID-pClPhe-D-Pal-Ser-Tyr-D-Hci-Leu-Lys(iPr)-Pro-D-Ala-NH2] (Ac-[d2Nal][Phe(4-Cl)][d3Pal]S[dY][d(hCit)]L[Lys(iPr)]P[dA]-NH2), the “local irritation at the administration site” value in data set [5] is “less local irritation at the administration site than degarelix”. Further, the tolerability result in data set [6] is listed as “Very good/good for all patients”; in data set [8], “tolerated well”. Also, in data set [7], the solubility is roughly 10000 µg/mL (≈ 6.85 mM). For the same compound, the “local reactions at the injection sites” value in data set [8] is listed as “only mild local indurations at the injection sites”.
